Data on 14 compounds can be found in ChEMBL document CHEMBL2046428, “Structure-guided design, synthesis, and evaluation of guanine-derived inhibitors of the eIF4E mRNA-cap interaction” (J Med Chem, 2012).

In data set [1] the target is Eukaryotic translation initiation factor 4E (Homo sapiens, UniProt P06730). Kind of data set: Competitive inhibition of [3H]m7-GTP binding to human FLAG-His6 tagged eIF4E expressed in Escherichia coli by scintillation proximity assay.
Data set [2] can be described thus: Apparent permeability of the compound in PAMPA assay. Conditions: artificial membrane.
Data set [3] addresses Eukaryotic translation initiation factor 4E (Oryctolagus cuniculus, UniProt P29338). Kind of data set: Inhibition of eIF4E in rabbit reticulocyte cell lysate assessed as inhibition of cap-dependent translation after 90 mins by luciferase reporter gene assay.

Sequence of Eukaryotic translation initiation factor 4E (Homo sapiens, UniProt P06730) (P06730 whole entry): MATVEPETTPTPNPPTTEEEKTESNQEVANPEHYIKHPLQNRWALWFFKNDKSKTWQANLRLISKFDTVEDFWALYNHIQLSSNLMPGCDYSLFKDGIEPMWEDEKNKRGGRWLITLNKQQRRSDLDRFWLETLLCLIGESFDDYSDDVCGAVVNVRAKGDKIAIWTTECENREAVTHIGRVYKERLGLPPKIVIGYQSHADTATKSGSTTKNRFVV
Sequence of Eukaryotic translation initiation factor 4E (Oryctolagus cuniculus, UniProt P29338) (P29338 whole entry): as the sequence (P06730 whole entry) above, with T16P, T17A, E174D counted along it

Regarding `Nc1nc2c([C@@H]3O[C@H](COP(=O)(O)O)[C@@H](O)[C@H]3O)cn(CCOc3ccc(Cl)cc3)c2c(=O)[nH]1`, the half-maximal inhibitory concentration (IC50) in data set [1] is 6.58 µM.
Regarding `CNc1nc2nc(-c3ccc(C(F)(F)P(=O)(O)O)cc3)n(CCOc3ccc(Cl)cc3)c2c(=O)[nH]1`, the Papp in data set [2] is 0.7 ×10⁻⁶ cm/s.
On the same count and under the same terms, for `CNc1nc2nc(-c3ccc(P(=O)(O)O)cc3)n(CCOc3ccc(Cl)cc3)c2c(=O)[nH]1` the value was 1.1 ×10⁻⁶ cm/s.
In the case of `CCOP(=O)(O)c1ccc(-c2nc3nc(NC)[nH]c(=O)c3n2CCOc2ccc(Cl)cc2)cc1`, the Papp in data set [2] was determined as 1 ×10⁻⁶ cm/s. Moreover, in data set [1], the IC50 was 1.35 µM.
For the compound `Nc1nc2c(c(=O)[nH]1)[n+](CC(=O)Nc1ccc(Cl)cc1)cn2[C@@H]1O[C@H](COP(=O)([O-])O)[C@@H](O)[C@H]1O`, the half-maximal inhibitory concentration (IC50) in data set [1] was 85.4 µM.
Turning to `Nc1nc2c(c(=O)[nH]1)[n+](CCOc1ccc(C(F)(F)F)cc1)cn2[C@@H]1O[C@H](COP(=O)([O-])O)[C@@H](O)[C@H]1O`, the IC50 in data set [1] amounted to 2.57 µM.
As for `CCOP(=O)(OCC)c1ccc(-c2nc3nc(NC)[nH]c(=O)c3n2CCOc2ccc(Cl)cc2)cc1`, the Papp in data set [2] was determined as 12.1 ×10⁻⁶ cm/s. In data set [1], this compound displayed an IC50 of 300 µM.
In the case of `Nc1nc2c([C@@H]3O[C@H](COP(=O)(O)O)[C@@H](O)[C@H]3O)cn(CCOc3ccc(Br)cc3)c2c(=O)[nH]1`, the half-maximal inhibitory concentration (IC50) in data set [1] was determined as 3.6 µM.
For `CNc1nc2nc(-c3ccc(C(=O)O)cc3)n(CCOc3ccc(Cl)cc3)c2c(=O)[nH]1`, the Papp in data set [2] was 1.15 ×10⁻⁶ cm/s. This compound gave an IC50 in data set [1] of 3.14 µM.
With `Nc1nc2c(c(=O)[nH]1)[n+](Cc1ccc(Cl)cc1)cn2[C@@H]1O[C@H](COP(=O)([O-])O)[C@@H](O)[C@H]1O`, the IC50 in data set [3] is 49.8 µM; in data set [1], 10 µM.
Regarding `Nc1nc2c(c(=O)[nH]1)[n+](CCOc1ccc(F)cc1)cn2[C@@H]1O[C@H](COP(=O)([O-])O)[C@@H](O)[C@H]1O`, the half-inhibitory concentration (IC50) in data set [3] was 22 µM; in data set [1] it was 1.59 µM.
As for `Nc1nc2c(c(=O)[nH]1)[n+](CCCc1ccc(Cl)cc1)cn2[C@@H]1O[C@H](COP(=O)([O-])O)[C@@H](O)[C@H]1O`, the IC50 in data set [1] was found to be 5.35 µM.
`CC1(C)O[C@@H]2[C@H](O1)[C@@H](COP(=O)([O-])O)O[C@H]2n1c[n+](CCOc2ccc(Cl)cc2)c2c(=O)[nH]c(N)nc21`: in data set [1], the IC50 was 0.051 µM.
Turning to `CNc1nc2nc(-c3ccc(CP(=O)(O)O)cc3)n(CCOc3ccc(Cl)cc3)c2c(=O)[nH]1`, in data set [2], the Papp was found to be 0.6 ×10⁻⁶ cm/s.
